The source of these data is patent EP4793271A1, “NEUROPROTECTIVE AGENT” (National Center of Neurology and Psychiatry, priority 2023, dated 2025).

For assay [1], the system named is primary cultured cells of mouse fetus-derived dorsal root ganglia (DRGs). The experiment in a line: Suppression of axonal degeneration after axotomy in DRG explant culture. Conditions: minimum concentration at which axonal degeneration was suppressed (DI 0.3 or less), 24 hours after axotomy; for minimal effective concentration: Mus musculus, read-out: Evaluation on protection against degeneration. It is filed as cell-based. Here is the method:
The compound of the present invention was studied for its protective effect against axonal injury using primary cultured cells of mouse fetus-derived dorsal root ganglia (DRGs).
DRGs were collected from a fetus derived from an ICR mouse (13.5 days of pregnancy). DRGs were cultured using a plate coated by incubation with 0.1 mg/mL poly-L-lysine at 4°C for 24 hours or longer, washing with PBS, and then incubation with 2.5 µg/mL Cultrex Mouse Laminin I at 37°C for 4 to 6 hours.
One of DRGs collected was plated to each well of the coated 24-well plate. The DRG was cultured in a nicotinamide-free medium for neuron (supplemented with 10% FBS, 1 mM glutamine, 50 ng/mL NGF2.5S, and penicillin-streptomycin) for 24 hours at maximum from the start of culture and then cultured in a nicotinamide-free medium for neuron (supplemented with 2% MACS NeuroBrew-21, 50 ng/mL NGF2.5S, 1% Glutamax, 20 µM uridine, 20 µM 5-fluoro-2'-deoxyuridine, and penicillin-streptomycin) for 7 to 8 days.
The nicotinamide-free medium for neuron was prepared so as to have the same constituents as those of the composition published in a previously reported paper (Brewer et al., J. Neuroscience Research 35: 567-576) except for nicotinamide with reference to this composition.
The test compound is dissolved in DMSO and added to cells such that the final concentration of DMSO is 0.1% (1000-fold dilution). 10 mM, 1 mM, 100 µM, 10 µM, 1 µM, and 100 nM samples of the test compound are prepared and added at a 1000-fold dilution to cells.
Axotomy was carried out by scooping out a cell body portion of the cultured DRG with a chip for a micropipette. The test compound was added at the following concentrations (final concentration: 10 µM, 1 µM, 100 nM, 10 nM, 1 nM, and 100 pM) within 30 minutes after axotomy. The compound was evaluated for its protective effect against axonal degeneration by imaging (Leica DMIL microscope, 20× objective lens) the state of neurites 24 hours after axotomy and evaluating the degree of degeneration. The degree of degeneration was quantified using a program uniquely developed using the R language. A degeneration index (DI) was used as an indicator for the degree of degeneration, and the ratio of the area of a fragmented axon to the total area of axons was calculated as defined in the equation of Expression 2. Suppressed axonal degeneration was evaluated when the value of DI was 0.3 or less. The minimum concentration at which axonal degeneration was suppressed was determined for each compound. Degeneratioin index (DI) = (Degenerated axons)/(All axons) [formula]
The axonal protective activity was evaluated as A ≤ 0.01 µM, 0.01 µM < B ≤ 0.1 µM, and 0.1 µM < C ≤ 1 µM depending on the minimum concentration at which axonal degeneration was suppressed.

In the next assay the target is T1, hSARM1 (Homo sapiens, UniProt Q6SZW1).
T1 sequence (Q6SZW1 28-724): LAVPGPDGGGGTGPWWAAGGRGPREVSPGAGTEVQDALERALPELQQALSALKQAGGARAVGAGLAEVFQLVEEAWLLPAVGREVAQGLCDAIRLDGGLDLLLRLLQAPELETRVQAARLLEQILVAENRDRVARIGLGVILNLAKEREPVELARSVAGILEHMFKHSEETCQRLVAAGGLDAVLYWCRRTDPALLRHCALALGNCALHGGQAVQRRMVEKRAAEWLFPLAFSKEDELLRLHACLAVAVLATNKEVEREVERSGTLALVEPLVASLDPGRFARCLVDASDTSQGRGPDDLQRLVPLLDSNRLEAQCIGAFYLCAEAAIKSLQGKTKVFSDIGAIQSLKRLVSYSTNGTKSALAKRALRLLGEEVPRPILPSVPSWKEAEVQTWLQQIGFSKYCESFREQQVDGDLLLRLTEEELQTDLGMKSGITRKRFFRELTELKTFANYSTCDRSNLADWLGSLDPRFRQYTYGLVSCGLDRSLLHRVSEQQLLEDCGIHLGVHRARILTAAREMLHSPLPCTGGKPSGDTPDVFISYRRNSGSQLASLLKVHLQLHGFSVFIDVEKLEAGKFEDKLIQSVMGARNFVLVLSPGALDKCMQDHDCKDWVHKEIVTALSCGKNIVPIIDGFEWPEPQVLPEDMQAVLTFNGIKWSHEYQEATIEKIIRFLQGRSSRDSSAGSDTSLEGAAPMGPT
The assay can be described thus: Human SARM1 activity measurement in HEK293 cells transiently transfected with ΔN-hSARM1 (PC6 fluorescent probe). It is filed as cell-based. Set-up: expressed in transfected cells; host or cells: HEK293, pcDNA3 expression vector. As to conditions: inhibition rate; compound 30 µM; PC6 50 µM; HEK293 cells expressing ΔN-hSARM1; approximately 48 hours from transfection; read-out: Evaluation on hSARM1 inhibitory. How it is done:
HEK293 cells cultured in a prepared medium of nicotinamide-free DMEM (Dulbecco's modified Eagle medium) supplemented with 10% FBS (BioSera), a 1% penicillin-streptomycin solution (FUJIFILM Wako Pure Chemical Corp.), 5 μM nicotinamide were inoculated at approximately 50,000 cells/well to a 96-well microplate, and the cells were cultured at 37°C under 5% CO2, transiently transfected on the next day with a pcDNA3 expression vector containing a DNA sequence (SEQ ID NO: 1) deficient in a mitochondrial targeting sequence encoded by an N-terminal 78-base sequence in cDNA encoding human sterile α- and armadillo-motif-containing protein (hSARM1) using PEI MAX(R) reagent (PolySciences Inc.), and forced to express ΔN-hSARM1 (SEQ ID NO: 2). Approximately 8 hours later, PC6, which reacts as a substrate of SARM1-specific base exchange reaction and functions as a fluorescent probe, was added thereto at a final concentration of 50 μM, and intracellular hSARM1 activity was measured (Li et al, eLife 2021 10: e67381). A compound for inhibitory activity evaluation was added at a final concentration of 30 μM at the same time with PC6, while dimethyl sulfoxide (Nacalai Tesque Inc.) was added to samples of a control group at the same time with PC6. The cells were incubated at 37°C under 5% CO2 for approximately 48 hours from transfection, followed by fluorescent signal measurement using SpectraMax M2 (Molecular Devices) (excitation: 405 nm, fluorescence: 525 nm, fluorescence cutoff: 515 nm). Results of this screening are reported as an inhibition rate (%) relative to a negative control defined as follows by using fluorescence intensity measured from a control group without transfection with ΔN-hSARM1 as a background whereas using fluorescence intensity measured from a control group transfected with ΔN-hSARM1 as the negative control. Inhibitory rate (%) = 100-(([…]-Background))/((Signalofthenegativecontrol-Background)) × 100 [formula] The nicotinamide-free medium was prepared so as to have the same composition as that of DMEM having known composition which is generally used in the art except for nicotinamide. […]

As to `O=C(Cc1cccnc1)NCc1ccc(NC(=O)c2ccccc2)nc1` [Compound 141], the “Evaluation on protection against degeneration” value (“Evaluation on protection” below) in assay [1] is “C (0.1 µM < C ≤ 1 µM)”.

`O=C(NCc1ccc(NC(=O)C23CC4CC(CC(C4)C2)C3)nc1)c1cccnc1` [Compound 142]: the minimal effective concentration in assay [1] fell in the range of 0.01 to 0.1 µM. For the same compound, the inhibition at 30 µM on hSARM1 was over 75%.

Turning to `O=C(Cc1ccc(Cl)cc1)Nc1ccc(CNC(=O)c2cccnc2)cn1` [Compound 145], in assay [1], the minimal effective concentration is at most 0.01 µM. Besides, at hSARM1, the inhibition at 30 µM is over 75%.

With `O=C(COc1ccccc1)Nc1ccc(CNC(=O)c2cccnc2)cn1` [Compound 147], the minimal effective concentration in assay [1] is at most 0.01 µM. Besides, on hSARM1, the inhibition at 30 µM was over 75%.

As for `O=C(Cc1ccccc1C(F)(F)F)Nc1ccc(CNC(=O)c2cccnc2)cn1` [Compound 155], the minimal effective concentration in assay [1] is at most 0.01 µM. Also, at hSARM1, the inhibition at 30 µM is over 75%.

`O=C(Cc1cccc(C(F)(F)F)c1)Nc1ccc(CNC(=O)c2cccnc2)cn1` [Compound 156]: the minimal effective concentration in assay [1] was at most 0.01 µM. The inhibition at 30 µM on hSARM1 was over 75%.

As to `CCC(=O)Nc1ccc(CNC(=O)c2cccnc2)cn1` [Compound 157], the “Evaluation on protection” value in assay [1] is on record as “A (A ≤ 0.01 µM)”. For the same compound, the inhibition at 30 µM on hSARM1 was over 10%.

For `O=C(CCc1ccc(OC(F)(F)F)cc1)Nc1ccc(CNC(=O)c2cccnc2)cn1` [Compound 170], in assay [1], the minimal effective concentration is at most 0.01 µM. For the same compound, the inhibition at 30 µM at hSARM1 is over 75%.

`NCc1ccc(C(=O)N2CCC(CCCCNC(=O)/C=C/c3cccnc3)CC2)cc1` [compound 1]: in assay [1], the “Evaluation on protection” value was “A (A ≤ 0.01 µM)”. Also, the inhibition at 30 µM on hSARM1 is over 75%.

As for `O=C(/C=C/c1cccnc1)NCCCCCCN1CCN(CCO)CC1` [compound 3], the minimal effective concentration in assay [1] is at most 0.01 µM. The inhibition at 30 µM at hSARM1 is over 75%.

For `NCCOCCOCCOCCCCCCCCNC(=O)c1cccnc1` [compound 9], the minimal effective concentration in assay [1] is at most 0.01 µM. Also, the inhibition at 30 µM at hSARM1 was over 75%.

On to `O=C(/C=C/c1cccnc1)NCCCNC1CCN(C(=O)c2ccccc2)CC1` [compound 12], for which, in assay [1], the minimal effective concentration is 0.01 to 0.1 µM. The inhibition at 30 µM at hSARM1 was over 75%.

Turning to `O=C(/C=C/c1cccnc1)NCCOCCOc1ccc(CNC(=O)c2ccccc2)cc1` [compound 14], in assay [1], the minimal effective concentration is at most 0.01 µM. Further, on hSARM1, the inhibition at 30 µM is over 75%.

As for `O=C(/C=C/c1cccnc1)NCCCOc1cccc(O)c1` [compound 23], the minimal effective concentration in assay [1] is at most 0.01 µM. In addition, at hSARM1, the inhibition at 30 µM was over 75%.

Consider `COCOc1cccc(OCCCNC(=O)/C=C/c2cccnc2)c1` [compound 24], for which the minimal effective concentration in assay [1] was at most 0.01 µM. Also, the inhibition at 30 µM on hSARM1 is over 75%.

Regarding `O=C(/C=C/c1cccnc1)NCCOCCOc1cccc(O)c1` [compound 26], the minimal effective concentration in assay [1] was at most 0.01 µM. Besides, the inhibition at 30 µM at hSARM1 was over 75%.

Consider `COCOc1cccc(OCCOCCNC(=O)/C=C/c2cccnc2)c1` [compound 29], for which the minimal effective concentration in assay [1] was at most 0.01 µM. Also, on hSARM1, the inhibition at 30 µM was over 75%.

In the case of `O=C(/C=C/c1cccnc1)Nc1cccc(OC(=O)/C=C/c2cccnc2)c1` [compound 33], the minimal effective concentration in assay [1] is 0.01 to 0.1 µM. Moreover, the inhibition at 30 µM on hSARM1 was over 75%.

In the case of `O=C(/C=C/c1cccnc1)NCCCCCCNC(=O)/C=C/c1cccnc1` [compound 38], the minimal effective concentration in assay [1] is at most 0.01 µM. In addition, on hSARM1, the inhibition at 30 µM was over 75%.

Turning to `C/C(=C\C(=O)NCCCCCCNC(=O)/C=C(\C)c1cccnc1)c1cccnc1` [compound 42], the minimal effective concentration in assay [1] was at most 0.01 µM. The inhibition at 30 µM on hSARM1 was over 75%.

Turning to `O=C(NCCCOc1ccc(CNC(=O)c2cccnc2)cc1)c1cccnc1` [compound 52], the minimal effective concentration in assay [1] is at most 0.01 µM. The inhibition at 30 µM on hSARM1 was over 50%.

As for `O=C(/C=C/c1cccnc1)NCCCOc1ccc(CNC(=O)c2cccnc2)cc1` [compound 53], in assay [1], the minimal effective concentration was at most 0.01 µM. In addition, the inhibition at 30 µM on hSARM1 is over 75%.
